# Source: ChEMBL document CHEMBL1201862, “PubChem BioAssay data set” (2004)
# Calls of active or inactive are those of the source.
# Columns and labels:
# [1] = molecular target: T1, Polyadenylate-binding protein 1 (Homo sapiens, UniProt P11940); test: MLLE domain peptide-binding blockers, IC50 – biochemical, fluorescence polarization, FITC-PAM2 peptide, dose response (AID 602259); format: functional; conditions: read-out: IC50_Mean
# [2] = molecular target: T1, Polyadenylate-binding protein 1; test: MLLE binding blockers, Cy5 peptide tracer – biochemical, fluorescence polarization, Cy5-PAM2 peptide, secondary, miRNA deadenylation inhibitor project, dose response (AID 602260); format: functional; conditions: read-out: IC50_Mean
# Nonstructural protein 1 = Nonstructural protein 1 (Influenza A virus, UniProt Q194T2); format: functional, Influenza A virus (A/California/07/2009(H1N1))
# Chain of Nonstructural protein 1 (Q194T2 whole entry): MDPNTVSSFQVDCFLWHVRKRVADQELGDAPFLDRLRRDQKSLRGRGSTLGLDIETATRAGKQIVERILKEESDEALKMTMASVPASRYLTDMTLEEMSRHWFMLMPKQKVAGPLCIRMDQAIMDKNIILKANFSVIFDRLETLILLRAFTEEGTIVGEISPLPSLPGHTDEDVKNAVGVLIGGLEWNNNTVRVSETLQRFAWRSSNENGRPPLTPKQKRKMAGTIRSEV
# cells [3] = format: functional
# [4] = molecular target: T2, Short transient receptor potential channel 4 (Mus musculus, UniProt Q9QUQ5); test: block of DAMGO-driven TRPC4 calcium entry – cell-based, HEK293 TRPC4/mu-opioid, Fluo-4 calcium, dose response (AID 434942); format: functional;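 also: potency of inhibitors blocking the TRPC4 calcium response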
# T2 sequence (Q9QUQ5 whole entry): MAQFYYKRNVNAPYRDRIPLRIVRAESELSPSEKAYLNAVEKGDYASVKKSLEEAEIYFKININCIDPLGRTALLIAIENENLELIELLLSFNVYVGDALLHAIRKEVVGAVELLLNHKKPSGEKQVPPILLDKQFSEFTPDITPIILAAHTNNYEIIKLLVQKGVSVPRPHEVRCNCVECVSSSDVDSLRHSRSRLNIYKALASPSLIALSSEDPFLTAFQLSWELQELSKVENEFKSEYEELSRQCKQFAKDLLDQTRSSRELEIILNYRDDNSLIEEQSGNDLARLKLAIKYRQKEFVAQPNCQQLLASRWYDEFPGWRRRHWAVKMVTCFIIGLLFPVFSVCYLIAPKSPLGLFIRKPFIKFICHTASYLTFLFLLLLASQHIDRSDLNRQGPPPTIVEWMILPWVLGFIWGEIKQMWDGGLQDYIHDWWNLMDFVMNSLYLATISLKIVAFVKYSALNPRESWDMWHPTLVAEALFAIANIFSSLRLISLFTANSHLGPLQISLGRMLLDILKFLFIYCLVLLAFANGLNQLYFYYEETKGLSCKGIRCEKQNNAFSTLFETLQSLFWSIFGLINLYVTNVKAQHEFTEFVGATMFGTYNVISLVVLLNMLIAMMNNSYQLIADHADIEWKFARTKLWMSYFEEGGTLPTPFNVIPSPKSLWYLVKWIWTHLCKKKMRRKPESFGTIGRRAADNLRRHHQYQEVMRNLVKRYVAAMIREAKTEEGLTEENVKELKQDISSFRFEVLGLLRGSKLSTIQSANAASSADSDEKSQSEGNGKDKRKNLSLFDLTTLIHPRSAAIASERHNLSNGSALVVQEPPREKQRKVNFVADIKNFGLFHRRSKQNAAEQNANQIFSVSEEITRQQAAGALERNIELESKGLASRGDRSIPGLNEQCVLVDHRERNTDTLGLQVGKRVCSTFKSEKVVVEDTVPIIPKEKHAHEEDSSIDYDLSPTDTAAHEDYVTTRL
# [5] = molecular target: T3, Ubiquitin-conjugating enzyme E2 N (Homo sapiens, UniProt P61088); format: functional;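 also: Dose-response confirmation in a TR-FRET assay detecting UBC13-driven polyubiquitin chain formation, inhibition measured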
# T3 sequence (P61088 whole entry): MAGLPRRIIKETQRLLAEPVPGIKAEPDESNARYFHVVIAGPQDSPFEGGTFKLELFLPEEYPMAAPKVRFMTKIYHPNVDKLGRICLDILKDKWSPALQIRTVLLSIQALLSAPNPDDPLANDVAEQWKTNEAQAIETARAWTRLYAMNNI
# cells [6] = format: functional, cell-based
# cells [7] = format: functional, cell-based; remark: listed apart in the source
# [8] = viability of uninfected HEp-2 cells – cell-based, HTS, cytotoxicity control for RSV inhibitor project, dose response (AID 2410); format: functional; conditions: human respiratory syncytial virus
# [9] = non-specific 3'UTR reporter inhibition in Clone20-Shn3RL – cell-based, Renilla luciferase, cherry-picked, counter-screen for Shn3 inhibitor project, dose response (AID 624133); format: functional
# [10] = Luminescence Cell-Based Dose Retest to Confirm Inhibitors of Cancer Stem Cells. [Related pubchem assays (depositor defined):AID2717, AID2721]; format: functional; conditions: Homo sapiens
# [11] = molecular target: T4, Rac GTPase-activating protein 1 (Homo sapiens, UniProt Q9H0H5); test: blockers of MgcRacGAP-driven Rac1 GTP hydrolysis – biochemical, ADP Hunter fluorescence, primary and confirmatory, confirmation (AID 624330); format: functional
# T4 sequence (Q9H0H5 whole entry): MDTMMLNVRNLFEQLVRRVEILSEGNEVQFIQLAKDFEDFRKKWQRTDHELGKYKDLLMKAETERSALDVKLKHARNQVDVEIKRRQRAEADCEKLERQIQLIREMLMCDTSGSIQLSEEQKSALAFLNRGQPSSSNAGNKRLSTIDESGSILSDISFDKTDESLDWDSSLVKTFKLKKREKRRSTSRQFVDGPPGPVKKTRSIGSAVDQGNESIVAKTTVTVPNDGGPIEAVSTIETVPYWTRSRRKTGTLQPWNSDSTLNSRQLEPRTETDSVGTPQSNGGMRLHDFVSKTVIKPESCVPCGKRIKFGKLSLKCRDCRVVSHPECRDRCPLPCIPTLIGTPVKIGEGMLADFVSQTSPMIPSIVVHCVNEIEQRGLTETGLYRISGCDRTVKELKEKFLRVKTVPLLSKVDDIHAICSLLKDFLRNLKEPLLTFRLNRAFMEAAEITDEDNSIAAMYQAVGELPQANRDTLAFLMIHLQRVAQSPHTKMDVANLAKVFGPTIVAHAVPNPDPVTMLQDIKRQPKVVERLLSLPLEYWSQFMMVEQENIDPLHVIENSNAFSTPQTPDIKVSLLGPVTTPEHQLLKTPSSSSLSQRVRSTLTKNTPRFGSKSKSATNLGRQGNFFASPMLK
# Streptococcus = test: GAS UMAA2166 growth inhibition – luminescence, BacTiterGlo, counter-screen for streptokinase expression inhibitor project, dose response (AID 1915); format: functional, organism-based;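 also: potency for reduction of bacterial viability or growth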
# [12] = system: Streptococcus sp. 'group A'; test: Streptococcus pyogenes SK(-)GAS viability under kanamycin – luminescence, BacTiterGlo, confirmation, counter-screen for streptokinase expression inhibitor project, dose response (AID 1900); format: functional, organism-based
# Streptokinase A = molecular target: T5, Streptokinase A (Streptococcus pyogenes serotype M1, UniProt P10520); test: viability-normalized secreted streptokinase activity reduction – plasminogen activation absorbance, OD405, dose response (AID 1914); format: functional, Streptococcus pyogenes M1 GAS;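 also: secreted streptokinase activity via plasminogen activation per viability signal from cell pellet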
# T5 sequence (P10520 whole entry): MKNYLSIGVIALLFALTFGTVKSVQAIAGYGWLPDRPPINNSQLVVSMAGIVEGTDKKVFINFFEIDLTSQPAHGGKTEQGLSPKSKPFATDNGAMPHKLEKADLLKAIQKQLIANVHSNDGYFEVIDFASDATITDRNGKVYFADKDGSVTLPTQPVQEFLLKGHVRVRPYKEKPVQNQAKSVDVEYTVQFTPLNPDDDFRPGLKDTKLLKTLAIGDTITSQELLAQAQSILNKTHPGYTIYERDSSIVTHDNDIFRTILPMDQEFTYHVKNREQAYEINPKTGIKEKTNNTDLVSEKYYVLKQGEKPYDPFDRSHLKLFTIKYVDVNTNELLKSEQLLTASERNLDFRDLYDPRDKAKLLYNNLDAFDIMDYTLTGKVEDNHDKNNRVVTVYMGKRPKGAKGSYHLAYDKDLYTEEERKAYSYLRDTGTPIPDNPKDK
# [13] = Luminescence Cell-Based Dose Response HTS to Identify Inhibitors of 5'UTR Stem-Loop Driven Prion Protein mRNA Translation in H4 Neuroglioblastoma Cells. [Related pubchem assays: 1827 (Project Summary), 1813 (Primary HTS)]; format: functional
# [14] = P. falciparum Dd2 growth inhibitors, dose response, SYBR Green, cherry-picked samples (AID 1159567); format: functional, cell-based
# T1 sequence (P11940 whole entry, the tested form may be a part): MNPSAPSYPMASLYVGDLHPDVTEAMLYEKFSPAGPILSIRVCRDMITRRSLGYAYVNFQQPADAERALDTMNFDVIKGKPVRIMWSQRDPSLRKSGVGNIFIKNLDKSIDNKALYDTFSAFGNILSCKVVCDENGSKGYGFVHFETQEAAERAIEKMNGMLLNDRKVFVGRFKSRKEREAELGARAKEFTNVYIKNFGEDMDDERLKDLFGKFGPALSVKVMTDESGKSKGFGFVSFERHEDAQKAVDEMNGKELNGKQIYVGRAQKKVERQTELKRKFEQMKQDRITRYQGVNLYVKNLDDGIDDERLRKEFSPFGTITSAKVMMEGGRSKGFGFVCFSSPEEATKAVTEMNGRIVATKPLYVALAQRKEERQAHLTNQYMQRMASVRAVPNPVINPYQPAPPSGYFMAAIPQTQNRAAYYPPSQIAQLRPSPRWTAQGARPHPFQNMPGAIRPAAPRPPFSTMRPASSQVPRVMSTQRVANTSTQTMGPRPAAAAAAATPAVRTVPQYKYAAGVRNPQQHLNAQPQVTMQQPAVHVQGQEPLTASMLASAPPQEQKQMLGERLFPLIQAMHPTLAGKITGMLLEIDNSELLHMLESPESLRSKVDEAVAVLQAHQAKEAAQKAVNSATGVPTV
smiles,measurement,setting,value
Cn1nnc(NC(=S)NC(=O)c2cccc3c(Br)cccc23)n1,IC50,[1],> 66 µM (inactive)
same,IC50,[2],> 66 µM (inactive)
COc1ccc(N2CCN(CCCNC(=O)c3cc4sccc4n3C)CC2)cc1,IC50,Nonstructural protein 1,39.4 µM (active)
O=c1c(=Nc2ccccc2O)c(=O)c2ccccc12,IC50,cells [3],3.81 µM (active)
CCC(SCC(=O)OC)C(=O)Nc1nnc(C(C)C)s1 (stereo not given),IC50,[1],> 66 µM (inactive)
same,IC50,[2],> 66 µM (inactive)
CCOC(=O)C1CCN(C(=O)COC(=O)CSc2ccc([N+](=O)[O-])cc2)CC1,IC50,[1],> 66 µM (inactive)
same,IC50,[2],> 66 µM (inactive)
CCOc1ccc(NC(=S)NC(=O)c2c(Cl)c(C)nn2C)c([N+](=O)[O-])c1,IC50,[1],> 66 µM (inactive)
same,IC50,[2],> 66 µM (inactive)
CCOc1ccc(CN2CCN(C(=O)c3ccccc3)CC2)cc1,EC50,[4],6.68 µM (active)
O=C(CCc1ccccc1)NNC(=O)c1ccccn1,IC50,[5],> 20 µM (inactive)
CCOc1ccc2c(c1)c1nnc(SCC3CCCO3)nc1n2C (stereo not given),EC50,cells [6],52.4 µM (active)
same,EC50,cells [7],> 350 µM (not active)
same,CC50,[8],> 50 µM (active)
O=C1/C(=C\c2ccc(-c3ccccc3[N+](=O)[O-])o2)C(c2ccccc2)=NN1c1ccccc1,IC50,Nonstructural protein 1,21.3 µM (active)
CC(C)(C)N(Cc1ccccc1)C(=O)COC(=O)CCc1c[nH]c2ccccc12,AC50,[9],25.9 µM (active)
COc1cc2ccccc2cc1C(=O)NC(=S)Nc1cccc(C(=O)O)c1,IC50,[1],> 66 µM (inactive)
same,IC50,[2],> 66 µM (inactive)
Nc1c(C(=O)Nc2ccccc2)c2nc3ccccc3nc2n1CCCN1CCOCC1,AC50,[10],5.96 µM (active)
same,IC50,[5],> 20 µM (inactive)
Cc1cccc(N(Cc2ccccc2)C(=O)CSC(C)C(=O)Nc2cc(C)on2)c1 (stereo not given),EC50,[4],2.11 µM (active)
O=C(NCCCN1CCOCC1)c1ccc(NC(=O)C2COc3ccccc3O2)cc1 (stereo not given),EC50,[4],15 µM (active)
CC(C)n1c(NCc2c[nH]c3ccccc23)nc2ccccc21,EC50,[4],1.68 µM (active)
COCCN=C(S)N(CCO)Cc1cc2cc3c(cc2nc1O)OCCO3,IC50,[1],> 66 µM (inactive)
same,IC50,[2],> 66 µM (inactive)
OC(COc1ccccc1)CN1C2=NCCCN2c2ccccc21 (stereo not given),EC50,[4],13.3 µM (active)
Cc1cccc(C(=O)Nc2nnc(-c3cccnc3)o2)c1,IC50,cells [3],9.52 µM (active)
CC1CCCN(C(=O)c2ccc3c(c2NCCO)C(=O)c2ccccc2C3=O)C1 (stereo not given),IC50,Nonstructural protein 1,22 µM (active)
O=C(Cc1ccc(F)cc1)N1CCN=C1SCc1ccc([N+](=O)[O-])cc1,IC50,[1],> 66 µM (inactive)
same,IC50,[2],> 66 µM (inactive)
Cc1ccc2cc(CN(CCN3CCOCC3)C(=O)NCc3ccccc3)c(O)nc2c1C,EC50,[4],4.22 µM (active)
O=C(COC(=O)c1ccccc1Cl)NCCC1=CCCCC1,IC50,cells [3],29.9 µM (active)
CCC(=O)NC(=S)NNC(=O)c1ccc([N+](=O)[O-])cc1,IC50,[5],> 20 µM (inactive)
CCCC(C)NC(=O)CN1C(=O)NC2(CCc3ccccc32)C1=O (stereo not given),EC50,cells [6],> 350 µM (not active)
same,EC50,cells [7],> 350 µM (not active)
O=C(NC(=S)N1CCCC1)c1ccccc1F,IC50,[1],> 66 µM (inactive)
same,IC50,[2],> 66 µM (inactive)
CC(C)C1=Nc2cccc3cccc(c23)N1,EC50,[4],2.37 µM (active)
same,IC50,[11],26.3 µM (active)
COc1ccc(Cl)cc1/C=N/NC(=O)c1c(-c2ccccc2)noc1C,IC50,[5],> 20 µM (inactive)
N#C/C(=N\Nc1ccc(S(=O)(=O)N2CCCCCC2)cc1)C(N)=S,EC50,Streptococcus,> 150 µM (not active)
same,EC50,[12],22.7 µM (active)
same,EC50,Streptokinase A,> 150 µM (not active)
same,IC50,[1],> 66 µM (inactive)
same,IC50,[2],> 66 µM (inactive)
CC1CN=C(/C=C(\O)c2ccc(Br)cc2)C(=O)N1 (stereo not given),EC50,[13],11.6 µM (inconclusive)
same,EC50,cells [6],35.6 µM (active)
same,EC50,cells [7],> 350 µM (not active)
CC(C)(C)[S@@+]([O-])N1Cc2cc(C(=O)NC3CCC3)nc(-c3cccc(Br)c3)c2[C@H]1CCO,AC50,[14],5.58 µM (active)
CO[C@@H]1CN(C)C(=O)c2cc(NC(=O)C3CC3)ccc2OC[C@H](C)N(CC2CCCC2)C[C@H]1C,AC50,[14],4.45 µM (active)
CCC(=O)N1CC2(CCN(Cc3ccc(Cl)cc3)CC2)c2c(n(C)c3cc(OC)ccc23)[C@@H]1CO,AC50,[14],7.31 µM (active)
CN(C)C(=O)c1cccc(-c2ccc3c(c2)[C@H]2[C@H](CCN2C(=O)C2CC2)[C@@H](CO)N3)c1,AC50,[14],17.5 µM (active)
CCC(=O)N1CC2(C1)CN(Cc1cc(F)ccc1F)[C@H](CO)c1[nH]c3cc(OC)ccc3c12,AC50,[14],5.73 µM (active)
O=C(C1CCC1)N1CC(=O)N2[C@H](CO)[C@@H](c3ccc(C#CCc4ccccc4)cc3)[C@@H]2C1,AC50,[14],4.27 µM (active)
